Results published in patent EP1731520A1, “Pyrrolo[2,3-d]pyrimidine derivatives which are antagonists of adenosine A1, A2A, and A3” (OSI Pharmaceuticals, Inc., priority 1999, dated 2001).
Where two headings read alike, the source gives them in different places.

What was measured:
[1] = test system: human A1 adenosine receptor; details: synthetic agonist; cited from earlier work
human A3 receptor = biological target: T1, human A3 receptor (Homo sapiens, UniProt P0DMS8); assay: Displacement binding of [3H]CPX, yeast membranes expressing hA3R
T1 sequence (P0DMS8 1-318): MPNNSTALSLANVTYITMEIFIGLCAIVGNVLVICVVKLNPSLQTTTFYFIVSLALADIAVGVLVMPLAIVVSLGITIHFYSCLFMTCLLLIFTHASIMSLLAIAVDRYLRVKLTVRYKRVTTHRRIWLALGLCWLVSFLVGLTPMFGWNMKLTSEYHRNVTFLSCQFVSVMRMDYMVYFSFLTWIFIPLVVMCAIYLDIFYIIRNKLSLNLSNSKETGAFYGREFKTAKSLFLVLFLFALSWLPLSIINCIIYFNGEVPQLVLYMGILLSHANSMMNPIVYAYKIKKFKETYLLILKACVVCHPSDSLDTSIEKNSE

[2] = biological target: human A1 receptor subtype (Homo sapiens, UniProt P30542)
human A1 receptor subtype, sequence (P30542 whole entry): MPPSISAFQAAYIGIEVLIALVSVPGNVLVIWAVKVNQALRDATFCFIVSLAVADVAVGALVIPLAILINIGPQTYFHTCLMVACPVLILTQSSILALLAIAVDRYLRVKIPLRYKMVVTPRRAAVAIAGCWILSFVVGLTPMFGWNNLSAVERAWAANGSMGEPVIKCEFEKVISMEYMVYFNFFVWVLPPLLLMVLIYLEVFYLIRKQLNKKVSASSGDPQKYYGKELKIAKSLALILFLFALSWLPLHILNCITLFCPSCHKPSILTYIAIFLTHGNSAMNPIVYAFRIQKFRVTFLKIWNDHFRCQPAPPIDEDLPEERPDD

[3] = biological target: human adenosine A1 receptor (Homo sapiens, UniProt P30542); assay: Yeast β-Galactosidase reporter gene assay (strain CY12660): inhibition of NECA-induced β-Galactosidase activity; details: read-out: Al Yeast IC50
human adenosine A1 receptor, sequence (P30542 whole entry): as above

[4] = biological target: human A2a receptor subtype (Homo sapiens, UniProt P29274); assay: Adenosine 2a receptor subtype competition radioligand binding, [3H] CGS-21680, HEK293 membranes; details: for Ki-A2a (selectivity versus other three subtypes): Table 16, Adenosine A2a Receptor Selective Compounds
human A2a receptor subtype, sequence (P29274 whole entry): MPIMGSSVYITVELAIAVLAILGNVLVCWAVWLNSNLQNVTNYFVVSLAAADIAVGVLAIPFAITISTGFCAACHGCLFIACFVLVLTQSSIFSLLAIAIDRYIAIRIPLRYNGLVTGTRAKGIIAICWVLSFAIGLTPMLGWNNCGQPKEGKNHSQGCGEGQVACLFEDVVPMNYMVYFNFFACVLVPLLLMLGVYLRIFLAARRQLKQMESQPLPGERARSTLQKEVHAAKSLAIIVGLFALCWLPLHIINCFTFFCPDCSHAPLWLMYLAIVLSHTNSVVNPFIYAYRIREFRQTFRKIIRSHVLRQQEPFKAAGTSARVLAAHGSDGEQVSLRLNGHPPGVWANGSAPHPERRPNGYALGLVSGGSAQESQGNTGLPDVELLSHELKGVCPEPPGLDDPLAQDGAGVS

[5] = biological target: T2, human A2b receptor subtype (Homo sapiens, UniProt P29275); assay: Adenosine 2b receptor subtype competition radioligand binding, [3H] DPCPX, HEK293 membranes
T2 sequence (P29275 1-332): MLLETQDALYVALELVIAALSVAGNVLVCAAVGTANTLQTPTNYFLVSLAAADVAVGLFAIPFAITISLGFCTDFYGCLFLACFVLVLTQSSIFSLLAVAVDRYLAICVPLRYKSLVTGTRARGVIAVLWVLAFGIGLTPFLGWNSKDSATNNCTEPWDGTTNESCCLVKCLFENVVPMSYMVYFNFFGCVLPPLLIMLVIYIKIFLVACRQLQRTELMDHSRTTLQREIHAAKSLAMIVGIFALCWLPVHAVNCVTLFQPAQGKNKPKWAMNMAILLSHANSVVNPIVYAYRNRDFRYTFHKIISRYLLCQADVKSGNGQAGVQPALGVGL

[6] = biological target: T3, human A3 receptor subtype (Homo sapiens, UniProt P0DMS8); assay: Adenosine 3 receptor competition radioligand binding, [125I] AB-MECA, HEK293 membranes; details: for Ki-A3 (selectivity versus other three subtypes): Table 17, Adenosine A3 Receptor Selective Compounds
T3 sequence (P0DMS8 1-318): T1 sequence (P0DMS8 1-318)

human A2a receptor = details: read-out: Reported Ki; agonist; cited from earlier work
[7] = read-out: Binding Ki (nM) A2a, Table 13
[8] = read-out: Binding Ki (nM) A2b, Table 13

**Q.** Which reported affinity [1] does the source give for CC(Cc1ccccc1)Nc1ncnc2c1ncn2[C@@H]1O[C@H](CO)[C@@H](O)[C@H]1O (single isomer, unassigned; (-)) [PIA, (-)-N6-(2-phenylisopropyl)-adenosine] here?
**A.** The reported affinity was “approximately 50 nM”.

**Q.** Which IC50 (human A3 receptor) does the source give for Nc1nc2ccc(Cl)cc2c2nc(-c3ccco3)nn12 [CGS-15943] here?
**A.** Its IC50 is 55.5 nM.

**Q.** For Cc1[nH]c2nc(-c3ccsc3)nc(N[C@H]3CC[C@H](O)CC3)c2c1C [Compound 704], which Ki ([2]; read-out: Al Binding Ki, Table 7, Effect of C2-Substituent) is on record?
**A.** The Ki was 61.1 nM.

**Q.** What about the IC50 ([3]; Table 7, Effect of C2-Substituent) of the same molecule?
**A.** Its IC50 is 297 nM.

**Q.** Which IC50 ([3]; Table 10, Effect of N6-Substituent) does the source give for Cc1[nH]c2nc(-c3ccccc3)nc(NCCCO)c2c1C [Compound 1015] here?
**A.** Its IC50 is 3710 nM.

**Q.** Which Ki [4, 7] does the source give for CC(=O)NCCNc1nc(-c2ccccc2)nc2[nH]c(C)c(C)c12 [Compound 1300] here?
**A.** The Ki was 18 to 48.6 nM.

**Q.** For CNC(=O)NCCCNc1nc(-c2ccccc2)nc2[nH]c(C)c(C)c12 [Compound 1310], which activity at 10 µM ([4]; read-out: % activity @ 10 µM, A2a) is on record?
**A.** Its activity at 10 µM is 76%.

**Q.** Which results are given for Cc1[nH]c2nc(-c3ccccc3)nc(NCCNC(=O)C3(N)CC3)c2c1C [Compound 1313]?
**A.** % activity @ 10 µM, A1 ([2]; Table 13, in %, 10 µM): 30%; % activity @ 10 µM, A2a ([4]; Table 13, in %, 10 µM): 65%

**Q.** For Cc1[nH]c2nc(-c3ccccc3)nc(NCCCNC(=O)CCN)c2c1C [Compound 1315], which Ki ([2]; read-out: Binding Ki (nM) A1, Table 13, Profile of Selective Adenosine Antagonists) is on record?
**A.** The Ki was 75 nM.

**Q.** And the Ki [4, 7]?
**A.** The Ki was 720 nM.

**Q.** What about the Ki [5, 8] of the same molecule?
**A.** The Ki was 3.4 nM.

**Q.** And the Ki ([6]; read-out: Binding Ki (nM) A3, Table 13)?
**A.** The Ki was 507 nM.

**Q.** For Cc1[nH]c2nc(-c3ccccc3)nc(NCCCNC(=O)CN)c2c1C [Compound 1316], which Ki [4, 7] is on record?
**A.** Its Ki is 710 nM.

**Q.** What about the Ki [5, 8] of the same molecule?
**A.** The Ki was 710 nM.

**Q.** What about the Ki [6] of the same molecule?
**A.** The Ki was 97 nM.

**Q.** And the “Ki-A3 (selectivity versus other three subtypes)” value [6]?
**A.** The value was “* (at least 10 times more selective than other three subtypes.)”.

**Q.** For O[C@H]1CC[C@H](Nc2nc(-c3ccccc3)nc3[nH]ccc23)CC1 [Compound 1318], which Ki [5] is on record?
**A.** The Ki was 2310 ± 926 nM.

**Q.** And the Ki [6]?
**A.** The Ki was 630 ± 76 nM.

**Q.** Which Ki [4] does the source give for O[C@H]1CC[C@H](Nc2nc(-c3cccc(F)c3)nc3[nH]ccc23)CC1 [Compound 1319, 4-(trans-4-hydroxycyclohexyl)amino-2-(3-fluorophenyl)-7H-pyrrolo [2,3d] pyrimidine] here?
**A.** The Ki was 206 nM.

**Q.** What about the Ki [5] of the same molecule?
**A.** Its Ki is 802 nM.

**Q.** And the Ki [6]?
**A.** Its Ki is 270 nM.

**Q.** With O[C@H]1CC[C@H](Nc2nc(-c3cccc(Cl)c3)nc3[nH]ccc23)CC1 [Compound 1320, 4-(trans-4-hydroxycyclohexyl)amino-2-(3-chlorophenyl)-7H-pyrrolo[2,3d] pyrimidine] as the molecule, how does the Ki [4] read?
**A.** Its Ki is 531 nM.

**Q.** And the Ki [5]?
**A.** The Ki was 530 nM.

**Q.** What about the Ki [6] of the same molecule?
**A.** The Ki was 419 nM.

**Q.** For O[C@H]1CC[C@H](Nc2nc(-c3ccncc3)nc3[nH]ccc23)CC1 [Compound 1321, 4-(trans-4-hydroxycyclohexyl)amino-2-(4-pyridyl)-7H-pyrrolo[2,3d]pyrimidine], which Ki [4] is on record?
**A.** Its Ki is 131 nM.

**Q.** What about the Ki [5] of the same molecule?
**A.** The Ki was 1030 nM.

**Q.** What about the activity at 10 µM ([6]; read-out: % activity @ 10 µM, A3) of the same molecule?
**A.** Its activity at 10 µM is 54%.

**Q.** With CC(=O)NCCNc1nc(-c2ccccc2)nc2[nH]c(CNc3ccccc3)cc12 [Compound 1404] as the molecule, how does the Ki ([4]; read-out: Binding Data Ki (nM) A2a, Table 14) read?
**A.** The Ki was 31 nM.

**Q.** For NC(=O)[C@H]1CCCN1c1nc(-c2cccc(F)c2)nc2[nH]ccc12 [Compound 1600], which “Ki-A2a (selectivity versus other three subtypes)” value [4] is on record?
**A.** Its value is “* (at least 5 times more selective than other three subtypes.)”.

**Q.** Which “Ki-A2a (selectivity versus other three subtypes)” value [4] does the source give for OC[C@H]1CCCN1c1nc(-c2ccncc2)nc2[nH]ccc12 [Compound 1601] here?
**A.** The value was “* (at least 5 times more selective than other three subtypes.)”.

**Q.** With NC(=O)[C@H]1CCCN1c1nc(-c2ccncc2)nc2[nH]ccc12 [Compound 1602] as the molecule, how does the “Ki-A2a (selectivity versus other three subtypes)” value [4] read?
**A.** The value was “* (at least 5 times more selective than other three subtypes.)”.

**Q.** Which “Ki-A2a (selectivity versus other three subtypes)” value [4] does the source give for OC[C@H]1CCCN1c1nc(-c2ccccc2)nc2[nH]ccc12 [Compound 1603] here?
**A.** The value was “* (at least 5 times more selective than other three subtypes.)”.

**Q.** Which “Ki-A2a (selectivity versus other three subtypes)” value [4] does the source give for c1ccc(-c2cc3c(N4CCNCC4)nc(-c4ccncc4)nc3[nH]2)cc1 [Compound 1604] here?
**A.** The value was “* (at least 5 times more selective than other three subtypes.)”.

**Q.** With OC[C@H]1C[C@@H](O)CN1c1nc(-c2ccncc2)nc2[nH]ccc12 [Compound 1605] as the molecule, how does the “Ki-A2a (selectivity versus other three subtypes)” value [4] read?
**A.** The value was “* (at least 5 times more selective than other three subtypes.)”.

**Q.** Which “Ki-A2a (selectivity versus other three subtypes)” value [4] does the source give for COC(=O)C(C)(C)NCc1cc2c(N3CCC[C@@H]3CO)nc(-c3ccccc3)nc2[nH]1 [Compound 1606] here?
**A.** The value was “* (at least 5 times more selective than other three subtypes.)”.

**Q.** For OCC1CCCN(c2nc(-c3ccncc3)nc3[nH]ccc23)C1 (centres unmarked) [Compound 1607], which “Ki-A2a (selectivity versus other three subtypes)” value [4] is on record?
**A.** The value was “* (at least 5 times more selective than other three subtypes.)”.

**Q.** With CC(=O)NCCNc1nc(-c2ccncc2)nc2[nH]c(C)c(CN(C)Cc3ccccc3)c12 [Compound 1608] as the molecule, how does the “Ki-A2a (selectivity versus other three subtypes)” value [4] read?
**A.** The value was “* (at least 5 times more selective than other three subtypes.)”.

**Q.** Which “Ki-A3 (selectivity versus other three subtypes)” value [6] does the source give for CNC(=O)NCCCNc1nc(-c2ccc(Cl)cc2)nc2[nH]ccc12 [Compound 1719] here?
**A.** Its value is “* (at least 10 times more selective than other three subtypes.)”.

**Q.** For c1ccc(-c2nc(NCCc3cnc[nH]3)c3cc[nH]c3n2)cc1 [Compound 1720, [2-(3H-Imidazol-4-yl)-ethyl]-(2-phenyl-7H-pyrrolo[2,3-d]pyrimidin-4-yl)-amine], which “A3 receptor binding affinity relative to reference compound 1308” value ([6]; competition radio ligand binding) is on record?
**A.** The value was “greater than 10 times”.
